Source: US20030180385A1 (priority 2002, published 2003)
Like-named read-outs stand apart in the source and are kept apart here. Marks after values point to notes of the source that are not given here.

Key:
barley seeds = details: in vivo
Fusarium graminearum = assay type: cell-based; details: for % of Fusarium graminearum: barley var. Lacey
bacteria = assay type: cell-based
[1] = 8 hours steeping
Alternaria spp. = assay type: cell-based; details: barley var. Lacey
[2] = DON variation during the malting process; details: for % DON reduction: H process
Protocol: The goal of this experiment was to follow the main steps of malt production for DON increase or decrease when barley seeds were submitted to the hypochlorite process during the first steeping, compared with the same seed not submitted to the hypochlorite process. Two samples of 1000 grams of barley seeds infected with 3.2 ppm of DON were malted and their DON contents were measured during the following steps:
1. On 50 grams of seeds just after the first steeping (7 hours steep)
2. On 50 grams of seeds just after the second steeping (5 hours steep)
3. On 50 grams of seeds on the second day of malting (half malting)
4. On 50 grams of seeds on the fourth day of malting (end of malting)
5. On 50 grams of seeds after the fist step of kilning (6 hours at 45° C.)
6. On 50 grams of seeds after the second step of kilning (3 hours at 65° C.)
7. On 50 grams of seeds after the third step of kilning (2 hours at 85° C.)
8. Control (dry seeds without treatment).

Fusarium = details: literature reports; cited from earlier work
[3] = wheat seeds; 1% concentration; cited from earlier work
[4] = Table 6, means of 50 seeds plated in ¼ PDA medium

SMILES: CC(=O)O [Ac. Ac. Glacial 0.5, glacial acetic acid]
- Germin. (%) (barley seeds): 8%
- Fusarium (%) (Fusarium graminearum; Table 4, 8 hours steeping): 4%
- Bacteria (%) (bacteria): 2%
- Total % of DON reduction ([1]; Table 4): 62.9%
- DON ([1]; Table 4, dry seeds 9.7): 3.6 µg/mL

SMILES: CC(=O)O [Ac. Ac. Glacial 0.25%, glacial acetic acid]
- Germin. (%) (barley seeds): 64%
- Fusarium (%) (Fusarium graminearum; Table 4, 8 hours steeping): 2%
- Bacteria (%) (bacteria): 6%
- Total % of DON reduction ([1]; Table 4): 71.1%
- DON ([1]; Table 4, dry seeds 9.7): 2.8 µg/mL

SMILES: CC(=O)O [Ac. Ac. Glacial 1.0, glacial acetic acid]
- Germin. (%) (barley seeds): 0%
- Fusarium (%) (Fusarium graminearum; Table 4, 8 hours steeping): 2%
- Bacteria (%) (bacteria): 0%
- Total % of DON reduction ([1]; Table 4): 71.1%
- DON ([1]; Table 4, dry seeds 9.7): 2.8 µg/mL

SMILES: CC(=O)OO [Ac. Perac. 0.1%, peracetic acid]
- Germin. (%) (barley seeds): 94%
- Fusarium (%) (Fusarium graminearum): 56%
- Bacteria (%) (bacteria): 48%

SMILES: CC(=O)OO [Ac. Perac. 0.5%, peracetic acid]
- Germin. (%) (barley seeds): 28%
- Fusarium (%) (Fusarium graminearum): 4%
- Bacteria (%) (bacteria): 28%

SMILES: CC(=O)OO [Ac. Perac. 0.25%, peracetic acid]
- Germin. (%) (barley seeds): 76%
- Fusarium (%) (Fusarium graminearum): 2%
- Bacteria (%) (bacteria): 62%

SMILES: CC(=O)OO [Ac. Perac. 1.0%, peracetic acid]
- Germin. (%) (barley seeds): 0%
- Fusarium (%) (Fusarium graminearum): 4%
- Bacteria (%) (bacteria): 4%

SMILES: CC(=O)OO [Ac. Perac. 2.0%, peracetic acid]
- Germin. (%) (barley seeds): 0%
- Fusarium (%) (Fusarium graminearum): 2%
- Bacteria (%) (bacteria): 0%

SMILES: CCO [Alco. 1%, Alcohol]
- Germin. (%) (barley seeds): 72%
- Fusarium (%) (Fusarium graminearum): 94%
- Bacteria (%) (bacteria): 94%

SMILES: CCO [Alco. 10%, Alcohol]
- Germin. (%) (barley seeds): 2%
- Fusarium (%) (Fusarium graminearum): 44* %
- Bacteria (%) (bacteria): 100%

SMILES: CCOC(C)=O [Eth. Ac. 1%, Ethyl Acetate]
- Germin. (%) (barley seeds): 6%
- Fusarium (%) (Fusarium graminearum; Table 3, 8 hours steeping): 88%
- Bacteria (%) (bacteria): 90%
- Total % of DON reduction ([1]; Table 3): 68%
- DON ([1]; Table 3, dry seeds 10.9): 3.5 µg/mL

SMILES: CCOC(C)=O [Eth. Ac. 10%, Ethyl Acetate]
- Germin. (%) (barley seeds): 0%
- Fusarium (%) (Fusarium graminearum; Table 3, 8 hours steeping): 0%
- Bacteria (%) (bacteria): 4%
- Total % of DON reduction ([1]; Table 3): 70%
- DON ([1]; Table 3, dry seeds 10.9): 3.3 µg/mL

SMILES: OO [H2O2 1.0%, peroxide]
- Germin. (%) (barley seeds): 94%
- Fusarium (%) (Fusarium graminearum): 38%
- Bacteria (%) (bacteria): 47%

SMILES: OO [H2O2 3.0%, peroxide]
- Germin. (%) (barley seeds): 92%
- Fusarium (%) (Fusarium graminearum): 20%
- Bacteria (%) (bacteria): 62%

SMILES: OCl [Hypochlorite 0.8%, hypochlorite]
- % Germination (barley seeds): 88%
- Germin. (%) (barley seeds): 80%
- Fusarium (%) (Fusarium graminearum; Table 4, 8 hours steeping): 2%
- % Fusarium (Fusarium graminearum; [4]): 8%
- % of Fusarium graminearum (Fusarium graminearum; 2 min. disinfestations): 20%
- % of Fusarium graminearum (Fusarium graminearum; 3 min. disinfestations): 18%
- % Bacteria (bacteria): 0%
- Bacteria (%) (bacteria): 2%
- Total % of DON reduction ([1]; Table 4): 87.6%
- DON ([1]; Table 4, dry seeds 9.7): 1.2 µg/mL
- % of Alternaria spp. (Alternaria spp.; 2 min. disinfestations): 66%
- % of Alternaria spp. (Alternaria spp.; 3 min. disinfestations): 68%

SMILES: [K+].[OH-] [KOH (0.5%), potassium hydroxide]
- % Germination (barley seeds): 96%
- % Fusarium (Fusarium graminearum): 44%
- % Bacteria (bacteria): 44%

SMILES: [K+].[OH-] [KOH (0.25%), potassium hydroxide]
- % Germination (barley seeds): 94%
- % Fusarium (Fusarium graminearum): 76%
- % Bacteria (bacteria): 82%

SMILES: O=P([O-])([O-])O.[Na+].[Na+] [Na2HPO4 (0.5%), sodium phosphate dibasic]
- % Germination (barley seeds): 94%
- % Fusarium (Fusarium graminearum; [4]): 70%
- % Bacteria (bacteria): 72%

SMILES: O=P([O-])([O-])O.[Na+].[Na+] [Na2HPO4 (0.25%), sodium phosphate dibasic]
- % Germination (barley seeds): 98%
- % Fusarium (Fusarium graminearum; [4]): 68%
- % Bacteria (bacteria): 68%

SMILES: O=C([O-])O.[Na+] [NaHCO3 (0.5%), sodium bicarbonate]
- % Germination (barley seeds): 88%
- % Fusarium (Fusarium graminearum; [4]): 72%
- % Bacteria (bacteria): 84%

SMILES: O=C([O-])O.[Na+] [NaHCO3 (0.25%), sodium bicarbonate]
- % Germination (barley seeds): 90%
- % Fusarium (Fusarium graminearum; [4]): 52%
- % Bacteria (bacteria): 70%

SMILES: [Na+].[OH-] [NaOH 0.1%, sodium hydroxide]
- Germin. (%) (barley seeds): 76%
- Fusarium (%) (Fusarium graminearum): 76%
- Bacteria (%) (bacteria): 74%

SMILES: [Na+].[OH-] [NaOH 0.5%, sodium hydroxide]
- % Germination (barley seeds): 96%
- Germin. (%) (barley seeds): 88%
- % Fusarium (Fusarium graminearum): 40%
- Fusarium (%) (Fusarium graminearum): 68%
- % Bacteria (bacteria): 8%
- Bacteria (%) (bacteria): 50%

SMILES: [Na+].[OH-] [NaOH 0.25%, sodium hydroxide]
- % Germination (barley seeds): 94%
- Germin. (%) (barley seeds): 96%
- % Fusarium (Fusarium graminearum): 44%
- Fusarium (%) (Fusarium graminearum): 88%
- % Bacteria (bacteria): 44%
- Bacteria (%) (bacteria): 80%

SMILES: [Na+].[OH-] [NaOH 1.0%, sodium hydroxide]
- Germin. (%) (barley seeds): 66%
- Fusarium (%) (Fusarium graminearum): 2%
- Bacteria (%) (bacteria): 6%

SMILES: [Cl-].[Na+] [Salt 1%, NaCl]
- Germin. (%) (barley seeds): 72%
- Fusarium (%) (Fusarium graminearum; Table 3, 8 hours steeping): 90%
- Bacteria (%) (bacteria): 76%
- Total % of DON reduction ([1]; Table 3): 71%
- DON ([1]; Table 3, dry seeds 10.9): 3.1 µg/mL

SMILES: [Cl-].[Na+] [Salt 5%, NaCl]
- Germin. (%) (barley seeds): 80%
- Fusarium (%) (Fusarium graminearum; Table 3, 8 hours steeping): 84%
- Bacteria (%) (bacteria): 78%
- Total % of DON reduction ([1]; Table 3): 77%
- DON ([1]; Table 3, dry seeds 10.9): 2.5 µg/mL

SMILES: OCl [hypochlorite]
- DON levels on "H" process (b) ([2]; 1. After the first steeping, seeds with 3.2 ppm DON): 0.7 ppm
- DON levels on "H" process (b) ([2]; 2. After the second steeping): 0.4 ppm
- DON levels on "H" process (b) ([2]; 3. Second day of malting): 0.4 ppm
- DON levels on "H" process (b) ([2]; 4. Fourth day of malting): 0.4 ppm
- DON levels on "H" process (b) ([2]; 5. Fist step of kilning): 0.3 ppm
- DON levels on "H" process (b) ([2]; 6. Second step of kilning): 0.3 ppm
- DON levels on "H" process (b) ([2]; 7. Third step of kilning): 0.4 ppm
- % DON reduction ([2]; 1. After the first steeping): 78.1%
- % DON reduction ([2]; 2. After the second steeping): 87.5%
- % DON reduction ([2]; 3. Second day of malting): 87.5%
- % DON reduction ([2]; 4. Fourth day of malting): 87.5%
- % DON reduction ([2]; 5. Fist step of kilning): 90.6%
- % DON reduction ([2]; 6. Second step of kilning): 90.6%
- % DON reduction ([2]; 7. Third step of kilning): 87.5%
- Fusarium reduction from seeds (Fusarium): ≤ 50%

SMILES: OCl [sodium hypochlorite]
- increase of the level of the toxin (DON) [3]: 24%
- level of the toxin (DON) after treatment [3]: 1.24 ppm
